Measurements reported in article PMC3433420 (PLoS ONE, 2012).
pKd: −log10 of the molar value. Read-outs that look alike come from different tables or passages of the source. Residues, ends and D or L forms follow the SMILES beside them.

Experiments:
[1] = biological target: T1, PLCG1-C SH2 domain (Homo sapiens, UniProt P19174); assay: biochemical; assay type: binding; conditions: high-confidence ErbB interactions
T1 construct: The 6X His-tagged SH2 domain proteins used in the assay, PLCG1-C, SHC4, VAV2; thioredoxin; made in house; host or cells: E. coli BL21(DE3)pLysS
T1 sequence (P19174 668-756 limits assumed): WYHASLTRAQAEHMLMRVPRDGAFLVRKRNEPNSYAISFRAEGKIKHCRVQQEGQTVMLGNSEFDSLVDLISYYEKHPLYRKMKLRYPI

[2] = biological target: T2, PLCG1-NC tandem SH2 domains (Homo sapiens, UniProt P19174); assay: FP saturation binding assay; conditions: protein PLCG1-NC; FP, high-confidence ErbB interactions; mean of replicate hits
T2 construct: the tandem protein was included in our analysis with all internal amino acids linking the domains; 6X His; thioredoxin; made in house; host or cells: E. coli BL21(DE3)pLysS
T2 sequence (P19174 550-756 limits assumed): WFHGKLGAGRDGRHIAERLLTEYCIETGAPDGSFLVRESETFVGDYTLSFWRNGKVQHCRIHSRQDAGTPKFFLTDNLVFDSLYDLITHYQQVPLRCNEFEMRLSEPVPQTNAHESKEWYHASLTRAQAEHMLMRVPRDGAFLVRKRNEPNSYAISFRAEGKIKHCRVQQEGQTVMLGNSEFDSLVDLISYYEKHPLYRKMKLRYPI
Procedure: (See Figure 1A) Rhodamine-labeled peptides were dissolved in assay buffer (20 mM HEPES, 100 mM KCl, 0.1% Tween-20, 5 mM DTT, pH 7.8), diluted to a concentration of 20 nM, and plated into black 384-well plates (Corning, Corning, NY) at 5 µL/well using a Perkin Elmer EP3 pipetting workstation (V&P Scientific, Inc., San Diego, CA). SH2, PTB, and thioredoxin control proteins were plated into the first column of 2 mL 96-well plates (Corning) at a concentration of 20 µM and serially diluted 1∶2 into freezing buffer (300 mM NaCl, 50 mM Na2PO4, pH 8, 20% glycerol v/v) eleven times using a Tecan Freedom EVO 100 workstation (Tecan, Männedorf, Switzerland). For the interaction assay, 5 µL of each of the twelve protein concentrations was added to the peptide-containing 384-well plates via the EP3 resulting in a protein dilution range of 0.002–10 µM and a final volume of 10 µL; peptide concentration was fixed at 10 nM. […] Experimental values were output as millipolarization (mP) units and imported into MATLAB (The MathWorks, Inc., Natick, MA) in which equation (1) was used to determine dissociation constants (KDs) for each protein/peptide pairing by least squares nonlinear regression. [drawing 1] (1)
FP was described by the following equation: P=Iparallel-IperpendicularIparallel+Iperpendicular, where “P” denotes polarization, and “I” denotes the fluorescent intensity relative to the plane of incident light. Experimental values were output as millipolarization (mP) units and imported into MATLAB where the following equation was used to determine dissociation constants (KDs) for each protein/peptide pairing by least squares nonlinear regression:
Pobs=Pmax∙ProteinKD+Protein [picture] (1)
Peptides were initially tested for systematic plate effects across protein dilutions and nonspecific binding to thioredoxin by linear regression analysis and any effects were regressed out. The median baseline control polarization value for each plate was then subtracted from each data point to make each binding curve intersect at zero. Plates with excessive variation in baseline control polarizations on both a global and run-specific manner (Dixon’s Q test, p < 0.05) were excluded from further analysis. Outliers in each binding curve were identified and removed using an iterative procedure as follows. The residuals for each fit were used to calculate a global standard deviation of the residuals (GSDR) for each concentration of SH2 domain over all interactions, and individual data points with residuals < or > two GSDR from the global mean residual were flagged as outliers. The outlier with the largest residual from each interaction was removed and nonlinear regression was again performed. This procedure was repeated if additional outliers were identified for an interaction, discarding the interaction if the number of outliers exceeded three. […] In order to further control our false positive rate against hidden confounding variables producing binding artifacts, we sought to determine whether there was a significant relationship between the strength of an interaction and its technical replication rate at our stringent significance and filtering thresholds. We performed logistic regression on the proportion of successful replicates for each interaction query against KD for all interactions (Figure S15A). […] “High-confidence” FP interactions are defined as those having 1 - P(Observed Replication Rate | Expectation) > 0.5 and that have replicated at least twice across independent FP runs. […] The compiled FP data were organized into heatmaps generated by MATLAB and relative binding strength (µM). Peptides without at least one positive hit were classified as “no interaction” if there was no homologous sequence (i.e. identical at the +1 to +4 positions relative to the phosphotyrosine) that produced a positive interaction within the ErbB receptor family.

[3] = biological target: T3, RASA1-N SH2 domain (Homo sapiens, UniProt P20936); assay: FP saturation binding assay
T3 sequence (P20936 181-272 limits assumed): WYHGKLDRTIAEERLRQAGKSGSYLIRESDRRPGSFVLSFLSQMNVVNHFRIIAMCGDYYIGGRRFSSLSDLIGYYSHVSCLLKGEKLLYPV

[4] = biological target: SH2 and PTB domains; conditions: most recent PM interactions, ref Jones et al. 2006 / Kaushansky et al. Chem and Biol 2008, cited from earlier work
Source text: Supplement pone.0044471.s022.xlsx, sheet "Most recent PM interactions" | column: Kd || Supplement pone.0044471.s022.xlsx, sheet "All original PM interactions" | column: Kd

[5] = biological target: GRB7 SH2 domain (Homo sapiens, UniProt Q14451); parameters: 6X His; thioredoxin; made in house; host or cells: E. coli BL21(DE3)pLysS; conditions: Protein GRB7; most recent PM interactions; ref Jones et al. 2006 / Kaushansky et al. Chem and Biol 2008; cited from earlier work
Sequence of GRB7 SH2 domain (Q14451 431-527 limits assumed): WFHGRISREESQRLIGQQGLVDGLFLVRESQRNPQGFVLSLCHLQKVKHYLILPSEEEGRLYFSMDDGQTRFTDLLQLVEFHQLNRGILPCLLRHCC

Compound: CC(C)C[C@H](NC(=O)[C@H](Cc1ccc(OP(=O)(O)O)cc1)NC(=O)[C@H](CCC(=O)O)NC(=O)[C@H](C)NC(=O)[C@H](CC(N)=O)NC(=O)[C@@H](N)CCC(=O)O)C(=O)N[C@@H](CCCNC(=N)N)C(=O)N[C@H](C(=O)N[C@@H](C)C(=O)N1CCC[C@H]1C(=O)N[C@@H](CCC(N)=O)C(=O)N[C@@H](CO)C(=O)N[C@@H](CC(=O)O)C(=O)O)C(C)C [ErbB1 1197 13-mer] (HELM PEPTIDE1{E.N.A.E.[O=C([C@H](Cc1ccc(OP(=O)(O)O)cc1)N[*:1])[*:2]].L.R.V.A.P.Q.S.D}$$$$V2.0)
- pKd ([1]; Protein PLCG1-C, FP saturation binding, mean over replicate hits): 5.25

Compound: CC(C)C[C@H](NC(=O)[C@H](Cc1ccc(OP(=O)(O)O)cc1)NC(=O)[C@H](CCC(=O)O)NC(=O)[C@H](CCC(N)=O)NC(=O)[C@H](CCCCN)NC(=O)[C@@H]1CCCN1)C(=O)N[C@@H](CC(N)=O)C(=O)N1CCC[C@H]1C(=O)N[C@H](C(=O)N[C@@H](CCC(=O)O)C(=O)N[C@@H](CCC(=O)O)C(=O)N[C@@H](CC(N)=O)C(=O)N[C@@H](CC(=O)O)C(=O)O)C(C)C [ErbB4 1162 13-mer] (HELM PEPTIDE1{P.K.Q.E.[O=C([C@H](Cc1ccc(OP(=O)(O)O)cc1)N[*:1])[*:2]].L.N.P.V.E.E.N.D}$$$$V2.0)
- pKd [2]: 5.27
- pKd [3]: 5.54

Compound: CC(C)C[C@H](NC(=O)[C@H](CO)NC(=O)[C@H](Cc1ccccc1)NC(=O)[C@H](CCC(=O)O)NC(=O)[C@H](CO)NC(=O)[C@H](CC(C)C)NC(=O)[C@H](Cc1ccc(OP(=O)(O)O)cc1)NC(=O)[C@H](CCC(=O)O)NC(=O)[C@@H]1CCCN1C(=O)[C@H](CC(N)=O)NC(=O)[C@@H](N)CCC(=O)O)C(=O)N[C@@H](CCCCN)C(=O)N[C@@H](CC(=O)O)C(=O)O [ErbB4 1284 13-mer] (HELM PEPTIDE1{E.N.P.E.[O=C([C@H](Cc1ccc(OP(=O)(O)O)cc1)N[*:1])[*:2]].L.S.E.F.S.L.K.D}$$$$V2.0)
- pKd ([1]; protein PLCG1-C, mean of replicate hits): 5.43

Compound: AFSPAFDNLYpYWDQDPPE [ErbB2 1222]
- pKd ([4]; Protein ABL1): 5.74
- pKd ([4]; Protein ABL2): 6.72
- pKd ([4]; Protein BLK): 7.30
- pKd ([4]; Protein CRKL): 5.84
- pKd ([4]; Protein GRB10): 6.31
- pKd ([4]; Protein ITK): 6.66
- pKd ([4]; Protein PIK3R1-NC): 5.74
- pKd ([4]; Protein PIK3R3-NC): 6.11
- pKd ([4]; Protein PLCG1-NC): 5.75
- pKd ([4]; Protein PLCG2-N): 6.22
- pKd ([4]; Protein PLCG2-NC): 6.59
- pKd ([4]; Protein RASA1-N): 6.30
- pKd ([4]; Protein RASA1-NC): 6.66
- pKd ([4]; Protein SH2B2): 5.83
- pKd ([4]; Protein SH2D3A): 5.80
- pKd ([4]; Protein SH2D3C): 6.15
- pKd ([4]; Protein SHC1-PTB): 6.21
- pKd ([4]; Protein SHC2-PTB): 6.34
- pKd ([4]; Protein SHC3): 5.77
- pKd ([4]; Protein SHF): 6.23
- pKd ([4]; Protein SRC): 6.70
- pKd ([4]; Protein SYK-C): 5.71
- pKd ([4]; Protein SYK-N): 6.70
- pKd ([4]; Protein SYK-NC): 6.34
- pKd ([4]; Protein TEC): 5.79
- pKd ([4]; Protein TENC1): 6.08
- pKd ([4]; Protein TNS3): 5.89
- pKd ([4]; Protein VAV3): 5.95
- pKd ([4]; Protein YES1): 6.66
- pKd [5]: 6.60
